Results reported in patent US8703438B2, “Ligand binding stabilization method for drug target identification” (The Regents of the University of California, priority 2008, dated 2014).

Key:
[1] = target: T1, proteins of S. cerevisiae BY4742 cell lysates (Saccharomyces cerevisiae, UniProt P10081); assay: DARTS with yeast cell lysates incubated in vitro with resveratrol, mass spectrometry of protected bands; format: binding; details: 1 mM resveratrol, Upper band
T1 construct: endogenous in cells; host or cells: S. cerevisiae BY4742
Procedure: For DARTS using yeast cell lysates incubated in vitro with resveratrol (FIG. 4B), S. cerevisiae BY4742 cells were used.
Gel bands were cut out and prepared for mass spec analysis with trypsin digestion as described in SI. Peptides were analyzed by LC/MS/MS on a Thermo LTQ-Orbitrap mass spectrometer with an Eksigent LC pump. For quantitative comparison of protein and peptide abundances, MS spectra were analyzed using the differential workflow of Rosetta Elucidator (Rosetta Inpharmatics) (54). Annotation was performed using PeptideTeller and ProteinTeller (see SI).
Proteins were initially identified by searching the spectra against the human International Protein Index database (version 3.46) and the S. cerevisiae Swissprot database (May 2008) using the SEQUEST algorithm (Eng et al. (1994) J Am Soc Mass Spectrom 5: 976-989) integrated into the Bioworks software package. Each peptide met the following criteria: XCorr ≧2 (+1), ≧3 (+2), ≧4 (+3), ≧5 (+4), and DeltaCN>0.1. For quantitative comparison of protein and peptide abundances, MS spectra were analyzed using the differential workflow of the Rosetta Elucidator software system (Rosetta Inpharmatics) (Neubert et al. (2008) J Proteome Res 7: 2270-2279). Annotation was performed using PeptideTeller and ProteinTeller with a minimum probability of 0.99 and predicted error of 0.0. Protein ratio data were generated with a P-value cutoff of 0.01 for all proteins with a peptide number >1. Intensity scaling was performed against the mean of feature signals, with 10% of outliers removed from the baseline dataset. Similar results were obtained in analysis without intensity scaling (FIG. 9A).
For the DARTS experiment using yeast cell lysates incubated in vitro with resveratrol, BY4742 cells were suspended in yeast extraction buffer (Grant et al. (1999) Meth. Mol Biol 119: 311-317) [(40 mM HEPES/KOH pH 7.5, 350 mM NaCl, 0.5 mM DTT, 10% glycerol, 0.1% Tween-20) supplemented with Roche complete protease inhibitor cocktail (Roche Diagnostics, Indianapolis, Ind.)]. Cell pellets were broken with glass beads for 2×40 s at 4° C. in a FastPrep-24 (MP Biomedicals, Solon, Ohio). Whole cell lysates were collected after centrifugation (1500 rpm, 10 min). Lysates were incubated with ethanol control or 1 mM resveratrol for 30 min at room temperature. Samples were then divided into two aliquots, which underwent proteolysis with thermolysin or mock proteolysis.

TAP-tagged Tif1 (eIF4A) = target: T2, TAP-tagged Tif1 (eIF4A) (Saccharomyces cerevisiae, UniProt P10081); assay: DARTS western blot with TAP-tagged eIF4A yeast strain; format: binding; details: FIG. 10
T2 construct: endogenous in cells; host or cells: TAP-tagged eIF4A yeast strain (Ghaemmaghami et al. 2003 collection)
T2 sequence (P10081 1-395): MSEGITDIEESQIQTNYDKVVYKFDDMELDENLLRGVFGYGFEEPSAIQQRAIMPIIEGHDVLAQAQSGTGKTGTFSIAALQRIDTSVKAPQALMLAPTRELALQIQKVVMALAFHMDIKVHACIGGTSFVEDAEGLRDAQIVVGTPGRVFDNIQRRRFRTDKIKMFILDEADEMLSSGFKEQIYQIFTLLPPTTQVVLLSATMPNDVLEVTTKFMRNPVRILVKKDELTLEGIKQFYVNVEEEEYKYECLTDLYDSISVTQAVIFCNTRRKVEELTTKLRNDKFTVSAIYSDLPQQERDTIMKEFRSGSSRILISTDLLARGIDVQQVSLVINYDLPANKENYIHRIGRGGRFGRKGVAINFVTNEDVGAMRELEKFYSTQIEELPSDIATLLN
Description: FIG. 4A: Chemical structure of resveratrol. FIG. 4B: Yeast cell lysates and human HeLa cell lysates were each treated with resveratrol in vitro followed by thermolysin digestion and silver staining. Protected bands of similar size were detected. FIG. 4C: Resveratrol protects TAP-tagged eIF4A, but not an unrelated Htb2, protein from proteolysis. Arrow: protein protected from subtilisin proteolysis (H. sapiens (SEQ ID NO:1), M. musculus (SEQ ID NO:2), X. laevis (SEQ ID NO:3), D. melanogaster (SEQ ID NO:4), C. elegans (SEQ ID NO:5), S. purpuratus (SEQ ID NO:6), C. reinhardtii (SEQ ID NO:7), A. thaliana (SEQ ID NO:8), H. andersenii (SEQ ID NO:9), S. cerevisiae (SEQ ID NO:10)). FIG. 4D: Resveratrol inhibits eIF4A-dependent translation in HEK 293 cells as assayed by bicistronic translation reporters. […] FIG. 4E: eIF4A is required for longevity in resveratrol-treated animals. Resveratrol (50 μM) lengthens the lifespan of wild-type N2 worms fed control (gfp) RNAi (green), but not worms fed eIF4A (inf-1) RNAi (red) or daf-16 RNAi (blue). gfp(RNAi), mVeh=19 (n=74), mRSV=20 (n=78), P=0.0006***; inf-1(RNAi), mVeh=26 (n=76), mRSV=24 (n=79), P=0.4687; daf-16(RNAi), mVeh=17 (n=78), mRSV=17 (n=76), P=0.3305. m, mean lifespan (days of adulthood); n, number of animals tested.
Arrow: protein protected from proteolysis. […]

[2] = system: yeast (wild type, tif1 or tif2 deletion mutants); assay: Yeast growth inhibition; format: cell-based; details: final concentration ˜1 mM
Description: For cytotoxic and cytostatic small molecules, deletion mutants in their target often would have increased sensitivity to the drug (and overexpression could decrease sensitivity). Indeed, this is the basis for the elegant haploinsufficiency profiling (HIP) strategy (Giaever et al. (1999) Nat Genet. 21: 278-283). However, an inherent limitation of this type of fitness-based methods is that they are applicable only to drugs that affect cell growth/viability, i.e., cytotoxic or cytostatic drugs. […] A key advantage of DARTS is that it is independent of the drug's biological phenotype, and thus is not limited to the studies of cytotoxic/cytostatic drugs or drugs that induce transcriptional or morphological changes which have been the limitation of previous methods.

Oc1ccc(C=Cc2cc(O)cc(O)c2)cc1 [resveratrol]
Fold Change, ATP-dependent RNA helicase eIF4A [1]: 1.961
protection of TAP-tagged Tif1 from proteolysis (TAP-tagged Tif1 (eIF4A)): protects the TAP-tagged Tif1
inhibition of yeast growth [2]: did not cause detectable inhibition of yeast growth
